Reference: patent US20200216441A1, “PESTICIDALLY ACTIVE HETEROCYCLIC DERIVATIVES WITH SULFUR CONTAINING SUBSTITUENTS” (SYNGENTA PARTICIPATIONS AG, priority 2017, published 2020)

Columns and labels:
[1] = system: Euschistus heros (Neotropical Brown Stink Bug); test: whole plant or invertebrate; type: in vivo; conditions: 120 h, application rate of 200 ppm, N2 nymphs on sprayed soybean leaves, 5 days after infestation, read-out: effect in at least one of the two categories (mortality or growth inhibition)
[2] = system: Diabrotica Balteata (Corn Root Worm); test: Diabrotica balteata (Corn Root Worm); conditions: in Zea mays, 96 h, read-out: effect in at least one of the two categories (mortality or growth inhibition)
[3] = system: Bemisia tabaci (Cotton White Fly); conditions: in Gossypium hirsutum, foliar, 144 h
[4] = system: Myzus persicae (Green Peach Aphid); test: whole plant or invertebrate; conditions: foliar, 144 h
[5] = system: Myzus persicae (Green Peach Aphid); test: whole plant or invertebrate; type: in vivo; conditions: 144 h, test rate of 24 ppm, systemic, roots of infested pea seedlings in test solution, 6 days
[6] = system: Plutella xylostella (Diamond Back Moth); test: whole plant or invertebrate; type: in vivo; conditions: 120 h, application rate of 200 ppm, L2 larvae on treated artificial diet, 5 days after infestation, read-out: effect in at least one of the two categories (mortality or growth inhibition)
[7] = system: Spodoptera littoralis (Egyptian Cotton Leaf Worm); test: whole plant or invertebrate; conditions: in Gossypium barbadense, foliar, 72 h, read-out: control (mortality, anti-feeding effect, growth inhibition)

CCS(=O)(=O)c1cc(OCS(C)(=O)=O)cnc1-c1nc2cc(C(F)(F)F)ncc2n1C [Compound P9, 2-[3-ethylsulfonyl-5-(methylsulfonylmethoxy)-2-pyridyl]-3-methyl-6-(trifluoromethyl)imidazo[4,5-c]pyridine]
≥ 80%: percent effect (mortality or growth inhibition) at 200 ppm [1] | mortality at 200 ppm [2] | mortality at 200 ppm [3] | mortality at 200 ppm [4] | mortality at 24 ppm [5]

CCS(=O)(=O)c1cc(OCCCS(C)(=O)=O)cnc1-c1nc2cc(C(F)(F)F)ncc2n1C [Compound P52, 2-[3-ethylsulfonyl-5-(3-methylsulfonylpropoxy)-2-pyridyl]-3-methyl-6-(trifluoromethyl)imidazo[4,5-c]pyridine]
≥ 80%: percent effect (mortality or growth inhibition) at 200 ppm [1] | mortality at 200 ppm [3] | mortality at 200 ppm [4] | mortality at 24 ppm [5]

CCS(=O)(=O)c1cc(O[C@H]2C[C@@H](C#N)C2)cnc1-c1nc2cc(C(F)(F)F)ncc2n1C [Compound P46, 3-[[5-ethylsulfonyl-6-[3-methyl-6-(trifluoromethyl)imidazo[4,5-c]pyridin-2-yl]-3-pyridyl]oxy]cyclobutanecarbonitrile]
≥ 80%: percent effect (mortality or growth inhibition) at 200 ppm [1] | mortality at 200 ppm [2] | mortality at 200 ppm [3] | mortality at 200 ppm [4] | percent effect (mortality or growth inhibition) at 200 ppm [6] | mortality at 24 ppm [5]

CCS(=O)(=O)c1cc(OCC(C)(C)C)cnc1-c1nc2cc(C(F)(F)F)ncc2n1C [Compound P26, 2-[5-(2,2-dimethylpropoxy)-3-ethylsulfonyl-2-pyridyl]-3-methyl-6-(trifluoromethyl)imidazo[4,5-c]pyridine]
≥ 80%: mortality at 200 ppm [2] | mortality at 200 ppm [7] | mortality at 200 ppm [3] | mortality at 200 ppm [4] | percent effect (mortality or growth inhibition) at 200 ppm [6]

CCS(=O)(=O)c1cc(OCCSC)cnc1-c1nc2cc(C(F)(F)F)ncc2n1C [Compound P11, 2-[3-ethylsulfonyl-5-(2-methylsulfanylethoxy)-2-pyridyl]-3-methyl-6-(trifluoromethyl)imidazo[4,5-c]pyridine]
≥ 80%: percent effect (mortality or growth inhibition) at 200 ppm [1] | mortality at 200 ppm [7] | mortality at 200 ppm [3] | mortality at 200 ppm [4] | mortality at 24 ppm [5]

CCS(=O)(=O)c1cc(OCCOC)cnc1-c1nc2cc(C(F)(F)F)ncc2n1C [Compound P8, 2-[3-ethylsulfonyl-5-(2-methoxyethoxy)-2-pyridyl]-3-methyl-6-(trifluoromethyl)imidazo[4,5-c]pyridine]
≥ 80%: percent effect (mortality or growth inhibition) at 200 ppm [1] | mortality at 200 ppm [2] | mortality at 200 ppm [7] | mortality at 200 ppm [3] | mortality at 200 ppm [4] | percent effect (mortality or growth inhibition) at 200 ppm [6] | mortality at 24 ppm [5]

CCS(=O)(=O)c1cc(OCS(C)(=O)=O)ccc1-c1nc2cc(C(F)(F)F)ncc2n1C [Compound P105, 2-[2-ethylsulfonyl-4-(methylsulfonylmethoxy)phenyl]-3-methyl-6-(trifluoromethyl)imidazo[4,5-c]pyridine]
≥ 80%: percent effect (mortality or growth inhibition) at 200 ppm [1] | mortality at 200 ppm [2] | mortality at 200 ppm [3] | mortality at 200 ppm [4] | mortality at 24 ppm [5]

CCS(=O)(=O)c1cc(OCC(F)(F)F)cnc1-c1nc2cc(C(F)(F)F)ncc2n1C [Compound P15, 2-[3-ethylsulfonyl-5-(2,2,2-trifluoroethoxy)-2-pyridyl]-3-methyl-6-(trifluoromethyl)imidazo[4,5-c]pyridine]
≥ 80%: percent effect (mortality or growth inhibition) at 200 ppm [1] | mortality at 200 ppm [2] | mortality at 200 ppm [7] | mortality at 200 ppm [3] | mortality at 200 ppm [4] | percent effect (mortality or growth inhibition) at 200 ppm [6] | mortality at 24 ppm [5]

CCS(=O)(=O)c1cc(OCC(C)C)cnc1-c1nc2cc(C(F)(F)F)ncc2n1C [Compound P75, 2-(3-ethylsulfonyl-5-isobutoxy-2-pyridyl)-3-methyl-6-(trifluoromethyl)imidazo[4,5-c]pyridine]
≥ 80%: percent effect (mortality or growth inhibition) at 200 ppm [1] | mortality at 200 ppm [2] | mortality at 200 ppm [7] | mortality at 200 ppm [3] | mortality at 200 ppm [4] | percent effect (mortality or growth inhibition) at 200 ppm [6] | mortality at 24 ppm [5]

CCS(=O)(=O)c1cc(OCOC)cnc1-c1nc2cc(C(F)(F)F)ncc2n1C [Compound P68, 2-[3-ethylsulfonyl-5-(methoxymethoxy)-2-pyridyl]-3-methyl-6-(trifluoromethyl)imidazo[4,5-c]pyridine]
≥ 80%: percent effect (mortality or growth inhibition) at 200 ppm [1] | mortality at 200 ppm [2] | mortality at 200 ppm [7] | mortality at 200 ppm [4] | percent effect (mortality or growth inhibition) at 200 ppm [6] | mortality at 24 ppm [5]

CCC(C#N)(CC)Oc1cnc(-c2nc3cc(C(F)(F)F)ncc3n2C)c(S(=O)(=O)CC)c1 [Compound P44, 2-ethyl-2-[[5-ethylsulfonyl-6-[3-methyl-6-(trifluoromethyl)imidazo[4,5-c]pyridin-2-yl]-3-pyridyl]oxy]butanenitrile]
≥ 80%: percent effect (mortality or growth inhibition) at 200 ppm [1] | mortality at 200 ppm [3]

CCS(=O)(=O)c1cc(OCC2CC2(F)F)cnc1-c1nc2cc(C(F)(F)F)ncc2n1C (stereo not drawn) [Compound P67, 2-[5-[(2,2-difluorocyclopropyl)methoxy]-3-ethylsulfonyl-2-pyridyl]-3-methyl-6-(trifluoromethyl)imidazo[4,5-c]pyridine]
≥ 80%: percent effect (mortality or growth inhibition) at 200 ppm [1] | mortality at 200 ppm [2] | mortality at 200 ppm [7] | mortality at 200 ppm [3] | mortality at 200 ppm [4] | percent effect (mortality or growth inhibition) at 200 ppm [6]

CCS(=O)(=O)c1cc(OC[Si](C)(C)C)cnc1-c1nc2cc(C(F)(F)F)ncc2n1C [Compound P61, [5-ethylsulfonyl-6-[3-methyl-6-(trifluoromethyl)imidazo[4,5-c]pyridin-2-yl]-3-pyridyl]oxymethyl-trimethyl-silane]
≥ 80%: mortality at 200 ppm [2] | mortality at 200 ppm [7] | mortality at 200 ppm [3] | mortality at 200 ppm [4]

CCS(=O)(=O)c1cc(OCCCC#N)cnc1-c1nc2cc(C(F)(F)F)ncc2n1C [Compound P70, 4-[[5-ethylsulfonyl-6-[3-methyl-6-(trifluoromethyl)imidazo[4,5-c]pyridin-2-yl]-3-pyridyl]oxy]butanenitrile]
≥ 80%: percent effect (mortality or growth inhibition) at 200 ppm [1] | mortality at 200 ppm [7] | mortality at 200 ppm [3] | mortality at 200 ppm [4] | percent effect (mortality or growth inhibition) at 200 ppm [6] | mortality at 24 ppm [5]

CCS(=O)(=O)c1cc(OC(C)(C)C(N)=O)cnc1-c1nc2cc(C(F)(F)F)ncc2n1C [Compound P89, 2-[[5-ethylsulfonyl-6-[3-methyl-6-(trifluoromethyl)imidazo[4,5-c]pyridin-2-yl]-3-pyridyl]oxy]-2-methyl-propanamide]
≥ 80%: percent effect (mortality or growth inhibition) at 200 ppm [1] | mortality at 200 ppm [2] | mortality at 200 ppm [3] | mortality at 200 ppm [4] | percent effect (mortality or growth inhibition) at 200 ppm [6] | mortality at 24 ppm [5]

CCSc1cc(OC(C)(C)C)cnc1-c1nc2cc(C(F)(F)F)ncc2n1C [Compound P3, 2-(5-tert-butoxy-3-ethylsulfanyl-2-pyridyl)-3-methyl-6-(trifluoromethyl)imidazo[4,5-c]pyridine]
≥ 80%: percent effect (mortality or growth inhibition) at 200 ppm [1] | mortality at 200 ppm [2] | mortality at 200 ppm [3] | mortality at 200 ppm [4] | percent effect (mortality or growth inhibition) at 200 ppm [6]

CCS(=O)(=O)c1cc(OCSC)ccc1-c1nc2cc(C(F)(F)F)ncc2n1C [Compound P106, 2-[2-ethylsulfonyl-4-(methylsulfanylmethoxy)phenyl]-3-methyl-6-(trifluoromethyl)imidazo[4,5-c]pyridine]
≥ 80%: percent effect (mortality or growth inhibition) at 200 ppm [1] | mortality at 200 ppm [2] | mortality at 200 ppm [3] | mortality at 200 ppm [4] | mortality at 24 ppm [5]

CCS(=O)(=O)c1cc(OCCCSC)cnc1-c1nc2cc(C(F)(F)F)ncc2n1C [Compound P56, 2-[3-ethylsulfonyl-5-(3-methylsulfanylpropoxy)-2-pyridyl]-3-methyl-6-(trifluoromethyl)imidazo[4,5-c]pyridine]
≥ 80%: percent effect (mortality or growth inhibition) at 200 ppm [1] | mortality at 200 ppm [2] | mortality at 200 ppm [3] | mortality at 200 ppm [4] | mortality at 24 ppm [5]

CCS(=O)(=O)c1cc(OCCF)cnc1-c1nc2cc(C(F)(F)F)ncc2n1C [Compound P31, 2-[3-ethylsulfonyl-5-(2-fluoroethoxy)-2-pyridyl]-3-methyl-6-(trifluoromethyl)imidazo[4,5-c]pyridine]
≥ 80%: percent effect (mortality or growth inhibition) at 200 ppm [1] | mortality at 200 ppm [2] | mortality at 200 ppm [7] | mortality at 200 ppm [4] | percent effect (mortality or growth inhibition) at 200 ppm [6] | mortality at 24 ppm [5]

CCS(=O)(=O)c1cc(OC(C)(C)CSC)cnc1-c1nc2cc(C(F)(F)F)ncc2n1C [Compound P50, 2-[5-(1,1-dimethyl-2-methylsulfanyl-ethoxy)-3-ethylsulfonyl-2-pyridyl]-3-methyl-6-(trifluoromethyl)imidazo[4,5-c]pyridine]
≥ 80%: percent effect (mortality or growth inhibition) at 200 ppm [1] | mortality at 200 ppm [2] | mortality at 200 ppm [3] | mortality at 200 ppm [4] | percent effect (mortality or growth inhibition) at 200 ppm [6] | mortality at 24 ppm [5]
